{"source": "patent US6900242B2", "about": "“Lactone formulations and method of use” (Magnachem International Laboratories, Inc., priority 2001, dated 2005)", "key": {"[1]": {"test_system": "Pseudomona aeroginosa ATCC 27853", "experiment": "Anti-bacterial activity, sensitivity disc zone of inhibition", "assay_type": "cell-based, Pseudomonas aeroginosa", "details": "for zone of inhibition: Ps. A", "description": "(§1) The material obtained in Example 1 was screened for antibiotic activity against Staphylococcus aureus, Pseudomonas aeroginosa, Escherichia coli, and Klebsiella pneumoniae. • Solvent: Buffer Phosphate 0.1 N, pH=8.0 • Antibiotic: LMSV-6 (Pure, Securolide) • Medium coat: 2 mL/100 mL • Inoculum: 4 mL/Petri Dish Preparation of Culture Medium: [table] Microorganisms used were standardized by American Type Culture Collection (ATCC), used in first generation: • E. coli ATCC 352 18, Lot 202602, Exp. 05/2000 (19-258) • *Kleb. Klebsiela pneumoniae, ATCC 13882, Lot 202 174, Exp 02/2000 (19-152) • *Ps. A Pseudomona aeroginosa ATCC 27853, Lot 202992, Exp 08/2000 (19-060) • *St. A Staphyloccus aureus ATCC 12598, Lot 202564, Exp 05/2000 (19-137) • **Str. P Streptoccus pyogenes, ATCC 2 1547, Lote 202691, Exp 06/2000 (19-190) • *=Atmospheric oxygen, Temp=35±2° C. • **=Atmopheric CO2, Temp=35±2° C."}, "[2]": {"test_system": "Klebsiela pneumoniae, ATCC 13882", "experiment": "Anti-bacterial activity, sensitivity disc zone of inhibition", "assay_type": "cell-based, Klebsiella pneumoniae", "details": "for zone of inhibition: Kleb", "description": "as §1"}, "[3]": {"test_system": "Staphyloccus aureus ATCC 12598", "experiment": "Anti-bacterial activity, sensitivity disc zone of inhibition", "assay_type": "cell-based, Staphylococcus aureus", "details": "for zone of inhibition: St. a", "description": "as §1"}, "E. coli ATCC 352 18": {"test_system": "E. coli ATCC 352 18", "experiment": "Anti-bacterial activity, sensitivity disc zone of inhibition", "assay_type": "cell-based, Escherichia coli", "details": "for zone of inhibition: E. coli", "description": "as §1"}, "[4]": {"test_system": "HEP-2 cells (laringe carcinoma)", "experiment": "Cytotoxic assay (MTT) in HEP-2 cells", "assay_type": "cell-based", "details": "Homo sapiens, HEp-2, HEP-2 cells", "text": "(§2) There are a large number of biological assays that require the measurement of surviving or proliferating mammalian cells. This can be achieved by different methods, e.g. counting cells that exclude or include a dye; measuring released ^51Cr labeled protein after cell lysis; and measuring incorporation of radiactive nucleotides radiactive [^3H]thymidine) or [^125I]iododeoxyuridine) during cells proliferation.\n(§3) Viable cells can be measured by using any of several staining methods, but a more accurate method is the multiwell scanning spectrophotometers (ELISA readers) which can measure large number of samples with a high degree of precision.\n(§4) A colorimetric assay to detect living cells, utilizing a colorless substrate that is modified to a colored product by any living cell, but not by dead cells or tissue culture medium, was used. […] The Formazan concentration in a gradient of Securolide concentrations was measured by multiwells scanning spectrophotometer (ELISA reader). Data analysis was then used to establish the Inhibitory concentration fifty (IC50) which is a quantitative parameter of antineoplastic activity. […]\n(§5) Assessment of cell growth inhibition was determined according to the methods of Skehan et aL, J. Nat. […] Optical density was measured at 570 nm. […]"}, "B. gingivalis": {"test_system": "B. gingivalis", "experiment": "MIC, procedure of Walker et al", "assay_type": "cell-based", "details": "Porphyromonas gingivalis", "text": "(§6) The minimum inhibitory concentration (MIC) needed to kill Bacteroides assaccharolyticus (Forsyth strain), determined according to the procedure of Walker et al (Antimicrobial and Chemotherapy, Vol. 16, p. 452-457, (1979), is between 6 to 60 micrograms per ml. The MIC value for B. gingivalis is 6 micrograms per ml. The MIC value for B. gracilis and Fusobacterium, other gram negative organisms is about 25 for each; and the MIC value for the gram positive organism Actinomyces viscosus is 60 for the aerobic strain and 60 for the anaerobic strain."}, "[5]": {"test_system": "Bacteroides assaccharolyticus (Forsyth strain)", "experiment": "MIC, procedure of Walker et al", "assay_type": "cell-based", "details": "read-out: minimum inhibitory concentration (MIC)", "text": "as §6"}, "Fusobacterium": {"test_system": "Fusobacterium", "experiment": "MIC, procedure of Walker et al", "assay_type": "cell-based", "text": "as §6"}, "B. gracilis": {"test_system": "B. gracilis", "experiment": "MIC, procedure of Walker et al", "assay_type": "cell-based", "text": "as §6"}, "Actinomyces viscosus": {"test_system": "Actinomyces viscosus", "experiment": "MIC, procedure of Walker et al", "assay_type": "cell-based", "text": "as §6"}, "bacterial infection": {"test_system": "bacterial infection", "experiment": "In vivo treatment of bacterial infection, rats infected in surgery", "details": "doses calculated by comparison with ceftriaxone"}, "Sarcina lutea": {"test_system": "Sarcina lutea", "experiment": "Minimum Inhibitory Concentration, poured in plate, sensitivity disc", "assay_type": "cell-based", "description": "• Methodology: Poured in plate, medium Mueler Hinton pH=8 • Buffer pH=8 for ceftriaxone pattern dilution • Tween 20 at 2% for LMSV-6 (Securolide) dilution • Microorganism: Sarcina lutea • Sample(s): LMSV-6 (16.0 microliters/100 mL and 10 microliter applied to sensitivity disc). Methodology: Poured in plate, medium Mueler Hinton p&8 • Buffer pH=8 for ceftriaxone pattern dilution • Tween 20 at 2% for LMSV-6 (Securolide) dilution • Used Microorganism: Sarcina lutea • Sample(S): LMSV-6 (10 microliters/mL and 20 microliter applied to sensitivity disc) • Control Pattern (P): Ceftriaxone (disc with 10 mcg) Results: […]"}, "H. pylori": {"test_system": "H. pylori", "experiment": "Patient endoscopy before and after treatment, H. pylori", "assay_type": "in vivo, human", "details": "patients", "text": "There are several methods used clinically to determine whether Helicobacter pylori is present in a human subject. These are employed for initial diagnosis of infection prior to treatment, as well as for determining the success of treatment in eradicating the organism from the patient. Endoscopy of the patient provides samples of tissue which can be cultured in a microaerophilic environment to diagnose H. pylori infection. Alternatively, the sample can be examined histologically by employing one of a number of stains such as Giemsa or hematoxylin-eosin. An urea test which takes advantage of the production of urease by H. pylori, can also be applied. This test relies on the formation of ammonia from the urea hydrolysis, which results in an observable change in pH, that is an indication of the […] of H. pylori."}, "Candida albicans": {"test_system": "Candida albicans", "experiment": "Candida albicans MIC / minimal fungicidal concentration assays", "assay_type": "cell-based", "details": "concomitant assays", "description": "Candida albicans cells were prepared as indicated in the J. Antimicrobial Chemotherapy 38, 579-587, and were washed 3 times with a 0.1 M phosphate solution and used immediately to determine the minimal inhibitory concentration (MIC). The MICs were determined by modification of a microtitre plate according to the standard method of the laboratory clinical standards of the Comite National. RPMI-1640, and L-glutamine buffered at pH 7 with a 0.15 M solution of MOPS (3-[N-morpholino]propane sulfonic acid). Candida albicans cells (1.5×10^3 cells/ml) were added to the wells of a 96-well plate containing RPMI-1640 and dilutions of antifungal agents. The results were read 48 hours after incubation at 35° C. and the MIC or the minimal inhibitory concentration which inhibited the growth of the Candida albicans cells was determined. After reading the MIC at 48 hours, the plates were shaken and 10 μl of well aliquot was removed from the wells which was placed on rectangular disks containing dextrose sugar. The plates were incubated for 48 hours at 35° C. and the minimal fungicidal concentration and the concentration of the antifungal agent at which there were no number of colony forming units."}, "[6]": {"test_system": "anaerobic gram negative organisms associated with gingivitis", "experiment": "Topical application to affected gingiva (gingivitis)", "assay_type": "in vivo", "details": "topically applied to the affected gingiva"}, "[7]": {"test_system": "Staphylococcus aureus, Pseudomonas aeroginosa, Escherichia coli, and Klebsiella pneumoniae", "experiment": "Anti-bacterial activity of LMSV-6 dilutions (text summary, whole panel)", "assay_type": "cell-based", "details": "dilutions 10, 20, 30 and 40 microliters/10 mL of LMSV-6 in Tween 60-2%", "description": "The material obtained in Example 1 was screened for antibiotic activity against Staphylococcus aureus, Pseudomonas aeroginosa, Escherichia coli, and Klebsiella pneumoniae.\n• Solvent: Buffer Phosphate 0.1 N, pH=8.0 • Antibiotic: LMSV-6 (Pure, Securolide) • Medium coat: 2 mL/100 mL • Inoculum: 4 mL/Petri Dish Preparation of Culture Medium: […]"}, "[8]": {"test_system": "HELA cells (cervix carcinoma)", "experiment": "Cytotoxic assay (MTT) in HELA cells", "assay_type": "cell-based", "details": "Homo sapiens", "text": "as §2, §3, §4, §5"}, "[9]": {"details": "disc of sensitivity 5 micrograms"}, "[10]": {"details": "disc of sensitivity 50 micrograms"}}}
{"smiles": "O=C(O)c1cn(C2CC2)c2cc(N3CCNCC3)c(F)cc2c1=O", "note": "[Ciprof, Ciprofloxacina, reference compound]", "values": [{"measurement": "zone of inhibition", "setting": "[1]; [9]", "value": 12, "unit": "mm"}, {"measurement": "zone of inhibition", "setting": "[2]; [9]", "value": 26, "unit": "mm"}, {"measurement": "zone of inhibition", "setting": "[3]; [9]", "value": 20, "unit": "mm"}, {"measurement": "zone of inhibition", "setting": "E. coli ATCC 352 18; [9]", "value": 28, "unit": "mm"}]}
{"smiles": "C=C1CCOC1=O", "note": "[LMSV-6]", "values": [{"measurement": "IC50", "setting": "[4]; population of 10^5 Cells/mL", "value": 10.4, "unit": "µg/mL"}, {"measurement": "IC50", "setting": "[4]; population of 10^6 Cells/mL", "value": 37.4, "unit": "µg/mL"}, {"measurement": "MIC", "setting": "B. gingivalis", "value": 6, "unit": "µg/mL"}, {"measurement": "MIC", "setting": "[5]", "value": "6 to 60", "unit": "µg/mL"}, {"measurement": "MIC value", "setting": "Fusobacterium", "value": "about 25"}, {"measurement": "MIC value", "setting": "B. gracilis", "value": "about 25"}, {"measurement": "MIC value", "setting": "Actinomyces viscosus; aerobic strain", "value": 60, "unit": "µg/mL"}, {"measurement": "MIC value", "setting": "Actinomyces viscosus; anaerobic strain", "value": 60, "unit": "µg/mL"}, {"measurement": "zone of inhibition", "setting": "[1]; LMSV-6 (puro)", "value": 30, "unit": "mm"}, {"measurement": "inhibition of growth", "setting": "[1]; Pseudomonas aeroginosa, 5 microliters", "value": "inhibits growth"}, {"measurement": "zone of inhibition", "setting": "[2]; LMSV-6 (puro)", "value": 40, "unit": "mm"}, {"measurement": "inhibition of growth", "setting": "[2]; Klebsiela pneumonae, 5 microliters", "value": "inhibits growth"}, {"measurement": "treatment of bacterial infection", "setting": "bacterial infection", "value": "successfully treated"}, {"measurement": "inhibition (zone)", "setting": "Sarcina lutea; 0.2 microliters of LMSV-6", "value": 3.3, "unit": "mm"}, {"measurement": "ZONE OF INHIBITION", "setting": "Sarcina lutea; applied volume to disc 1.6 microliters", "value": 20.0, "unit": "mm"}, {"measurement": "ZONE OF INHIBITION", "setting": "Sarcina lutea; applied volume to disc 5 microliters", "value": 42.0, "unit": "mm"}, {"measurement": "Minimum Inhibitory Concentration (MIC)", "setting": "Sarcina lutea; approximate", "value": "~0.2", "unit": "µL"}, {"measurement": "zone of inhibition", "setting": "[3]; LMSV-6 (puro)", "value": 30, "unit": "mm"}, {"measurement": "inhibition of growth", "setting": "[3]; Staphyloccus aureus, 5 microliters", "value": "inhibits growth"}, {"measurement": "H. pylori by endoscopy before and after treatment", "setting": "H. pylori", "value": "decrease or absence of H. pylori"}, {"measurement": "zone of inhibition", "setting": "E. coli ATCC 352 18; LMSV-6 (puro)", "value": "30 (mm)"}, {"measurement": "inhibition of growth", "setting": "E. coli ATCC 352 18; Escherichia coli, 5 microliters", "value": "inhibits growth"}, {"measurement": "activity against Candida albicans", "setting": "Candida albicans", "value": "high activity"}, {"measurement": "effect against gingivitis organisms", "setting": "[6]", "value": "selectively effective"}, {"measurement": "inhibition of bacterial growth", "setting": "[7]", "value": "did not exhibit inhibition of bacterial growth"}, {"measurement": "IC50", "setting": "[8]; population of 10^5 Cells/mL", "value": 7.37, "unit": "µg/mL"}, {"measurement": "IC50", "setting": "[8]; population of 10^6 Cells/mL", "value": 27.3, "unit": "µg/mL"}]}
{"smiles": "C[C@@H]1O[C@@H]1P(=O)(O)O", "note": "[osf, Fosfomicina, reference compound]", "values": [{"measurement": "zone of inhibition", "setting": "[1]; [10]", "value": 6, "unit": "mm"}, {"measurement": "zone of inhibition", "setting": "[2]; [10]", "value": 22, "unit": "mm"}, {"measurement": "zone of inhibition", "setting": "[3]; [10]", "value": 18, "unit": "mm"}, {"measurement": "zone of inhibition", "setting": "E. coli ATCC 352 18; [10]", "value": 10, "unit": "mm"}]}
